Reference: the supplement of paper PMC8671470
Where a name gives a salt, the structure may show the parent alone.

Tests used:
Conditions in all cases: 72 h
BV-173 [1] = assay: cell viability (% survival relative to DMSO control, bortezomib = 0%); higher = less cytotoxic
How it was run: (§1)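 Percent survival figures are means of duplicate wells. They were obtained by CellTiter-Glo luminescence after 10 AML and 5 CML cell lines spent 72 h at 37 °C with 5% CO2 in 384-well plates with compounds at 1, 10, 100, 1000 or 10000 nM. Vehicle was set to 100% and a 10 µM positive control to 0%.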

THP-1 [2] = assay: as above
How it was run: as §1

HEL [3] = assay: as above
How it was run: as §1

ML-2 [4] = assay: as above
How it was run: as §1

HL-60 [5] = assay: as above
How it was run: as §1

MV4-11 [6] = assay: as above
How it was run: as §1

MOLM-13 [7] = assay: as above
How it was run: as §1

Mono-Mac-6 [8] = assay: as above
How it was run: as §1

NOMO-1 [9] = assay: as above
How it was run: as §1

KG-1 [10] = assay: as above
How it was run: as §1

SHI-1 [11] = assay: as above
How it was run: as §1

KU-812 [12] = assay: as above
How it was run: as §1

KCL-22 [13] = assay: as above
How it was run: as §1

K-562 [14] = assay: as above
How it was run: as §1

LAMA-84 [15] = assay: as above
How it was run: as §1

BV-173 [16] = system: BV-173
How it was run: (§2)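 The IC50 was read from log-logistic dose–response fits. Fifteen myeloid leukaemia lines were exposed for 72 h at 37 °C with 5% CO2 to five tenfold doses from 1 to 10,000 nM in duplicate. ATP luminescence, normalised to vehicle and to a 10 µM positive control, was fitted with four parameters.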

THP-1 [17] = system: THP-1
How it was run: as §2

HEL [18] = system: HEL
How it was run: as §2

ML-2 [19] = system: ML-2
How it was run: as §2

HL-60 [20] = system: HL-60
How it was run: as §2

MV4-11 [21] = system: MV4-11
How it was run: as §2

MOLM-13 [22] = system: MOLM-13
How it was run: as §2

Mono-Mac-6 [23] = system: Mono-Mac-6
How it was run: as §2

NOMO-1 [24] = system: NOMO-1
How it was run: as §2

KG-1 [25] = system: KG-1
How it was run: as §2

SHI-1 [26] = system: SHI-1
How it was run: as §2

KU-812 [27] = system: KU-812
How it was run: as §2

KCL-22 [28] = system: KCL-22
How it was run: as §2

K-562 [29] = system: K-562
How it was run: as §2

LAMA-84 [30] = system: LAMA-84
How it was run: as §2

CCCC(CCC)C(=O)O [Valproic acid]
cell viability [%]
Conditions | 1 nM | 10 nM | 100 nM | 1000 nM | 10000 nM
BV-173 [1] | 88.5 | 93.5 | 87.8 | 104 | 90.6
HEL [3] | 119 | 103 | 94.5 | 108 | 106
HL-60 [5] | 87.3 | 96.2 | 99.2 | 87.9 | 103
K-562 [14] | 107 | 95.7 | 98.6 | 109 | 112
KCL-22 [13] | 108 | 94.1 | 96.2 | 127 | 95.5
KG-1 [10] | 90.2 | 98.7 | 93 | 90.4 | 108
KU-812 [12] | 95.6 | 86.5 | 92.6 | 99.5 | 97.2
LAMA-84 [15] | 106 | 91.7 | 96.2 | 102 | 106
ML-2 [4] | 106 | 95.6 | 93 | 99.3 | 91.5
MOLM-13 [7] | 105 | 100 | 100 | 76 | 105
MV4-11 [6] | 111 | 86.6 | 102 | 96.6 | 97.5
Mono-Mac-6 [8] | 96.3 | 98.2 | 98.3 | 105 | 99.1
NOMO-1 [9] | 93.8 | 93.6 | 94.6 | 98.5 | 104
SHI-1 [11] | 106 | 94.8 | 95.9 | 92.5 | 101
THP-1 [2] | 104 | 93.2 | 93.7 | 102 | 91.2

Conditions | IC50 (cell viability) [µM]
BV-173 [16] | > 10
HEL [18] | > 10
HL-60 [20] | > 10
K-562 [29] | > 10
KCL-22 [28] | > 10
KG-1 [25] | > 10
KU-812 [27] | > 10
LAMA-84 [30] | > 10
ML-2 [19] | > 10
MOLM-13 [22] | > 10
MV4-11 [21] | > 10
Mono-Mac-6 [23] | > 10
NOMO-1 [24] | > 10
SHI-1 [26] | > 10
THP-1 [17] | > 10

OCC(CO)N[C@H]1C[C@](O)(CO)[C@@H](O)[C@H](O)[C@H]1O [Voglibose]
cell viability [%]
Conditions | 1 nM | 10 nM | 100 nM | 1000 nM | 10000 nM
BV-173 [1] | 113 | 112 | 99.3 | 93.8 | 102
HEL [3] | 124 | 107 | 97.3 | 99.1 | 118
HL-60 [5] | 119 | 99.5 | 116 | 88.2 | 94.6
K-562 [14] | 97.9 | 107 | 113 | 89.4 | 99.3
KCL-22 [13] | 99.4 | 97.1 | 98 | 98.1 | 111
KG-1 [10] | 95.6 | 102 | 107 | 95.6 | 106
KU-812 [12] | 97.5 | 109 | 106 | 88.5 | 91.3
LAMA-84 [15] | 102 | 105 | 99.6 | 94.6 | 103
ML-2 [4] | 109 | 110 | 107 | 95.2 | 111
MOLM-13 [7] | 117 | 94.4 | 127 | 70 | 70.1
MV4-11 [6] | 106 | 107 | 113 | 84.7 | 52.7
Mono-Mac-6 [8] | 102 | 96 | 109 | 86.7 | 91.8
NOMO-1 [9] | 103 | 103 | 107 | 99.1 | 102
SHI-1 [11] | 106 | 108 | 100 | 96 | 94.4
THP-1 [2] | 108 | 96 | 93 | 101 | 99.1

Conditions | IC50 (cell viability) [µM]
BV-173 [16] | > 10
HEL [18] | > 10
HL-60 [20] | > 10
K-562 [29] | > 10
KCL-22 [28] | > 10
KG-1 [25] | > 10
KU-812 [27] | > 10
LAMA-84 [30] | > 10
ML-2 [19] | > 10
MOLM-13 [22] | > 10
MV4-11 [21] | 6.47
Mono-Mac-6 [23] | > 10
NOMO-1 [24] | > 10
SHI-1 [26] | > 10
THP-1 [17] | > 10

O=C(Oc1cccc(F)c1OC(=O)c1cccc(O)c1)c1cccc(O)c1 [WZB117]
cell viability [%]
Conditions | 1 nM | 10 nM | 100 nM | 1000 nM | 10000 nM
BV-173 [1] | 96 | 104 | 90.5 | 98.8 | 15.4
HEL [3] | 107 | 110 | 95.2 | 99.8 | 72.7
HL-60 [5] | 102 | 98 | 93.3 | 104 | 48
K-562 [14] | 96.2 | 101 | 102 | 106 | 79.1
KCL-22 [13] | 101 | 91.4 | 92 | 110 | 70.6
KG-1 [10] | 113 | 95.7 | 87.6 | 90.4 | 30.7
KU-812 [12] | 99.1 | 103 | 90.9 | 99.9 | 9.71
LAMA-84 [15] | 97.9 | 98.6 | 92.4 | 95.1 | 101
ML-2 [4] | 102 | 104 | 98.7 | 98.8 | 25.5
MOLM-13 [7] | 92.2 | 125 | 94.7 | 94 | 44.8
MV4-11 [6] | 106 | 85.9 | 97 | 88.2 | 25.4
Mono-Mac-6 [8] | 96.6 | 104 | 99.7 | 101 | 16.9
NOMO-1 [9] | 95.5 | 94.3 | 94.1 | 111 | 82.1
SHI-1 [11] | 95.8 | 95.6 | 102 | 103 | 72.5
THP-1 [2] | 101 | 102 | 101 | 108 | 64.9

Conditions | IC50 (cell viability) [µM]
BV-173 [16] | 4.56
HEL [18] | > 10
HL-60 [20] | 9.7
K-562 [29] | > 10
KCL-22 [28] | > 10
KG-1 [25] | 5.35
KU-812 [27] | 3.88
LAMA-84 [30] | > 10
ML-2 [19] | 5.89
MOLM-13 [22] | 8.47
MV4-11 [21] | 2.93
Mono-Mac-6 [23] | 4.74
NOMO-1 [24] | > 10
SHI-1 [26] | > 10
THP-1 [17] | > 10

CC(C)(Cc1ccccc1)NCC(O)c1ccc(O)c(NS(C)(=O)=O)c1 (stereo not given) [Zinterol hydrochloride]
cell viability [%]
Conditions | 1 nM | 10 nM | 100 nM | 1000 nM | 10000 nM
BV-173 [1] | 113 | 93.6 | 106 | 87 | 121
HEL [3] | 77.8 | 101 | 103 | 110 | 93.5
HL-60 [5] | 107 | 113 | 85 | 87.7 | 112
K-562 [14] | 92.5 | 107 | 99.9 | 107 | 111
KCL-22 [13] | 96.1 | 99.4 | 98.2 | 103 | 95.6
KG-1 [10] | 118 | 94.5 | 99.6 | 87.9 | 102
KU-812 [12] | 113 | 93.9 | 106 | 87.1 | 97.6
LAMA-84 [15] | 106 | 99.1 | 112 | 96.6 | 101
ML-2 [4] | 95.4 | 93.3 | 93 | 93.9 | 103
MOLM-13 [7] | 90.9 | 86.8 | 82.3 | 90.7 | 98
MV4-11 [6] | 89.7 | 79.9 | 84.5 | 74.3 | 88.4
Mono-Mac-6 [8] | 72.2 | 51.5 | 49 | 48.6 | 50.1
NOMO-1 [9] | 107 | 107 | 101 | 98.6 | 97.4
SHI-1 [11] | 111 | 112 | 103 | 110 | 120
THP-1 [2] | 109 | 101 | 111 | 103 | 102

Conditions | IC50 (cell viability) [µM]
BV-173 [16] | > 10
HEL [18] | > 10
HL-60 [20] | > 10
K-562 [29] | > 10
KCL-22 [28] | > 10
KG-1 [25] | > 10
KU-812 [27] | > 10
LAMA-84 [30] | > 10
ML-2 [19] | > 10
MOLM-13 [22] | > 10
MV4-11 [21] | > 10
Mono-Mac-6 [23] | 0.0976
NOMO-1 [24] | > 10
SHI-1 [26] | > 10
THP-1 [17] | > 10
